4 compounds from patent US10336766B2, “Anticancer drug candidates” (THE SCRIPPS RESEARCH INSTITUTE, priority 2015, dated 2019) can be followed below.

Holding throughout (type): cell-based, human
Data set [1] deals with central nervous system cell line SF-295. In words: In vitro cytotoxic activity, CELLTITER 96 AQueous One Solution (MTS) assay, SF-295. The conditions noted are these: 72 h treatment, mean ± SD of 3 replicates, read-out: IC50 cytotoxicity, SF-295. Here is the method:
(§1) The in vitro cytotoxic activity (IC50, half maximal inhibitory concentration) of the tiancimycins was tested against selected human cancer cell lines, such as breast cancer cells MDA-MB-468, melanoma cell M14 and SK-MEL-5, non-small cell lung cancer cell NCI-H226, central nervous system cell lines SF-295 and SF-539, and the known enediyne UCM was used as a comparison. Suspended cultures of cells were diluted to a concentration of 5×10^4 cells mL^−1 in RPMI 1640 medium supplemented with 10% fetal bovine serum, 100 μgmL^−1 streptomycin, and 100 UmL^−1 penicillin. The suspended cultures were dispensed into 96-well microtiter plates (100 μL per well) and the plates were incubated for 24 hours at 37° C. in an atmosphere of 5% CO2, 95% air, and 100% humidity. After incubation, original medium was removed and 100 μL of fresh medium was added, followed by adding serial dilutions of the tiancimycins (A, B, and C, 1 μl) and UCM (1 μl) in DMSO. The concentration of the tested compounds was ranged from 0 to 100 nM. Plates were incubated under the above conditions for 72 hours. After incubation, 20 μl CELLTITER 96® AQueous One Solution Reagent (Promega Corp, Madison, Wis., USA) was added to the plates and incubated at 37° C. in a humidified, 5% CO2 atmosphere for 30 to 60 min. The absorbance at 490 nm was recorded using an ELISA plate reader. Each point represents the mean±SD of 3 replicates. The IC50 was determined by computerized curve fitting.
(§2) Antitumor activities were assessed using CELLTITER 96® Aqueous One Solution Proliferation Assay (MTS) (Promega Corp.). Cells were plated in 96-well plate at 5000 cells/well and allowed to adhere overnight at 37° C. in a humidified atmosphere of 5% CO2. Medium was then removed and replaced by fresh culture medium containing different concentrations of different drugs. The cells were treated for 72 h before the assay was developed. All assay values were measured in triplicate.

For data set [2], the system named is central nervous system cell line SF-539. The data set is described as follows: In vitro cytotoxic activity, CELLTITER 96 AQueous One Solution (MTS) assay, SF-539. The settings on record: 72 h treatment, mean ± SD of 3 replicates, read-out: IC50 cytotoxicity, SF-539. Here is the method:
as §1, §2

Data set [3] has as its system non-small cell lung cancer cell NCI-H226. The data set is described as follows: In vitro cytotoxic activity, CELLTITER 96 AQueous One Solution (MTS) assay, NCI-H226. The conditions noted are these: 72 h treatment, mean ± SD of 3 replicates, read-out: IC50 cytotoxicity, NCI-H226. Here is the method: as §1, §2
The test system of data set [4] is breast cancer cells MDA-MB-468. The data set is described as follows: In vitro cytotoxic activity, CELLTITER 96 AQueous One Solution (MTS) assay, MDA-MB-468. The conditions noted are these: 72 h treatment, mean ± SD of 3 replicates, read-out: IC50 cytotoxicity, MDA-MB-468. The procedure:
as §1, §2

Data set [5] concerns melanoma cell M14. In words: In vitro cytotoxic activity, CELLTITER 96 AQueous One Solution (MTS) assay, M14. The conditions noted are these: 72 h treatment, mean ± SD of 3 replicates, read-out: IC50 cytotoxicity, M14. The procedure: as §1, §2
Data set [6] relates to melanoma cell SK-MEL-5. The data set is described as follows: In vitro cytotoxic activity, CELLTITER 96 AQueous One Solution (MTS) assay, SK-MEL-5. The conditions noted are these: 72 h treatment, mean ± SD of 3 replicates, read-out: IC50 cytotoxicity, SK-MEL-5. Here is the method:
as §1, §2

Structures are written as SMILES. Read-outs that look alike come from different tables or passages of the source.

As for `COc1ccc2c(c1O)C(=O)c1c3c(cc(O)c1C2=O)C12O[C@@]1([C@@H](C)O)[C@H](C#C/C=C\C#C[C@H]2O)N3` [TNM A, tiancimycin A], the IC50 – broadly, the midpoint of a concentration-inhibition curve – in data set [1] (Homo sapiens) is 0.14 ± 0.01 nM; in data set [2] (Homo sapiens), 0.3 ± 0.08 nM; in data set [3] (Homo sapiens), 2.3 ± 0.1 nM; in data set [4] (Homo sapiens) it was 0.1 ± 0.01 nM; in data set [5] (Homo sapiens) it was 0.14 ± 0.01 nM; in data set [6] (Homo sapiens), 0.19 ± 0.01 nM.

As to `COC(=O)/C=C(\C)[C@@]12OC13c1cc(O)c4c(c1N[C@H]2C#C/C=C\C#C[C@H]3O)C(=O)c1ccccc1C4=O` [TNM B, tiancimycin B], the IC50 amounted to 0.26 ± 0.02 nM in data set [1] (Homo sapiens); 0.23 ± 0.05 nM in data set [2] (Homo sapiens); 2.8 ± 0.1 nM in data set [3] (Homo sapiens); 0.1 ± 0.01 nM in data set [4] (Homo sapiens); 0.24 ± 0.01 nM in data set [5] (Homo sapiens); 0.19 ± 0.04 nM in data set [6] (Homo sapiens).

For the compound `COC(=O)C(O)C(C)(O)[C@@]12OC13c1cc(O)c4c(c1N[C@H]2C#C/C=C\C#C[C@H]3O)C(=O)c1c(ccc(O)c1O)C4=O` (stereo partly drawn) [TNM C, tiancimycin C], the IC50 in data set [1] (Homo sapiens) was 0.28 ± 0.02 nM; in data set [2] (Homo sapiens), 0.3 ± 0.05 nM; in data set [3] (Homo sapiens) it was 3.3 ± 0.3 nM; in data set [4] (Homo sapiens), 0.07 ± 0.01 nM; in data set [5] (Homo sapiens) it was 0.25 ± 0.01 nM; in data set [6] (Homo sapiens), 0.14 ± 0.02 nM.

For `CC(O)[C@@]12O[C@]13c1cc(O)c4c(c1N[C@H]2C#C/C=C\C#C[C@H]3O)C(=O)c1ccccc1C4=O` (stereo partly drawn) [UCM, uncialamycin, reference compound], the IC50 in data set [1] turned out to be 0.51 ± 0.05 nM; in data set [2] it was 0.67 ± 0.03 nM; in data set [3], 4.1 ± 0.2 nM; in data set [4], 0.22 ± 0.03 nM; in data set [5], 0.47 ± 0.07 nM; in data set [6], 1.7 ± 0.1 nM.
